Reference: patent US20260364184A1, “COMPOUND BASED ON OXOISOINDOLINYL-SUBSTITUTED TETRAHYDROPYRIMIDINE-DIONE AND USE THEREOF” (GLUETACS THERAPEUTICS (SHANGHAI) CO., LTD., priority 2023, published 2026)
Each block holds one molecule with its values, some of them ahead of it.

What was measured:
[1] = tested on: Human acute lymphocytic leukemia T lymphocytes cell line (CCRF-CEM); assay: Inhibition of CCRF-CEM cell proliferation (CellTiter luminescent viability); type: cell-based; details: Homo sapiens, 96 h, Table IF2, AR inhibitor-based; for inhibition at 0.01 µM: 10 nM, read-out: Inhibition Rate at 10 nM (%); for inhibition at 0.5 µM: 500 nM, read-out: Inhibition Rate at 500 nM (%)
[2] = Inhibition of RPMI-8226 cell proliferation (CellTiter luminescent viability); type: cell-based; details: Homo sapiens; Table IA4, IRAK4 inhibitor-based; RPMI-8226, 10 nM, 96 hours; read-out: Inhibition Rate at 10 nM (%)
[3] = tested on: Human Acute T Lymphoblastic Leukemia Cells (Molt-4); assay: Inhibition of Molt-4 cell proliferation (CellTiter luminescent viability); type: cell-based; details: Homo sapiens, MOLT-4, 96 h, Table IA2, IRAK4 inhibitor-based, 96 hours; for inhibition at 0.01 µM: Molt-4, 10 nM, read-out: Inhibition Rate at 10 nM (%); for inhibition at 0.5 µM: Molt-4, 500 nM, read-out: Inhibition Rate at 500 nM (%)
[4] = tested on: Human myeloid monocytic leukemia cell line (MV-4-11); assay: Inhibition of MV-4-11 cell proliferation (CellTiter luminescent viability); type: cell-based; details: Homo sapiens, MV4-11, Table IA3, IRAK4 inhibitor-based, 96 hours; for inhibition at 0.01 µM: MV-4-11, 10 nM, read-out: Inhibition Rate at 10 nM (%); for inhibition at 0.5 µM: MV-4-11, 500 nM, read-out: Inhibition Rate at 500 nM (%)
In short: (§1)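 Cells are seeded in 96-well plates, cultured at 37 °C, 5% CO2, and treated next day with 5-fold serial compound dilutions (stock series from 2000 μM; 0.5 μL into 100 μL medium). Viability is read by CellTiter-Meiluncell luminescence after the set exposure, and IC50 is taken from growth-inhibition curves.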

[5] = tested on: Human gastric cancer cell line MGC803; assay: Inhibition of MGC803 tumor cell proliferation (CellTiter luminescent viability); type: cell-based; details: Table IA1, IRAK4 inhibitor-based compounds; MGC803, 96 hours; read-out: Inhibitory activity (IC50, nM) on tumor cell proliferation, MGC803
Procedure: (§2) The tumor cells used herein were cultured in a cell culture medium listed in table 3 at 37 °C in an incubator with 5% CO2. Prior to experimentation, all cell lines used were correctly identified by STR profiling, and tested negative for mycoplasma contamination using a mycoplasma detection kit through routine screenings.
(§3) The IC50 values of the compounds of the present disclosure (including the compounds in Table 1, Table 2, and Examples 1-468) were determined using the CellTiter-Meiluncell Luminescent Cell Viability Assay Kit from Dalian Meilun Biotech Co., Ltd. The detailed procedure is as follows: Tumor cells were seeded in 96-well cell culture plates at the densities specified in Table 4. On the following day, the test compounds of the present disclosure were subjected to serial dilution. The dilution can be performed according to one of the following two methods: • (1) The first dilution method: The test compounds of the present disclosure (including the compounds in Table 1, Table 2, and Examples 1-468) were subjected to 5-fold serial dilutions starting from a highest concentration of 2000 μM, resulting in a total of 9 concentrations from high to low (2000, 400, 80, 16, 3.2, 0.64, 0.128, 0.0256, 0.00512 μM). Subsequently, 0.5 μL of the test compound dilution was transferred into the 96-well plate containing the cells, with each well containing 100 μL of cell culture medium. […] Into the 96-well plate, the diluted test compounds and corresponding detection reagents were added, resulting in final test compound concentrations of 500 nM and 10 nM, respectively. The experimental procedure is described below using the diluted 2 μM test compound as an example.
(§4) 0.5 μL of the aforementioned diluted compound of the present disclosure (including the compounds in Table 1, Table 2, and Examples 1-468) was added to the seeded cells in 100 μL of medium, yielding a final test compound concentration of 10 nM. After the cells were treated with the compounds of the present disclosure for a specified period, the cell viability assay reagent was added to the culture medium according to the kit's instructions to determine cell viability. […] All controls were treated using the same procedure as the compounds of the present disclosure. The growth inhibition curves for the compounds of the present disclosure were plotted using Prism GraphPad software, and the IC50 values were calculated therefrom.

[6] = tested on: JEKO-1; assay: Inhibition of JEKO-1 cell proliferation (CellTiter luminescent viability); type: cell-based, human; details: Table IA1, IRAK4 inhibitor-based; JEKO-1, 96 hours; read-out: Inhibitory activity (IC50, nM) on tumor cell proliferation, JEKO-1
Procedure: as §2, §3, §4

[7] = tested on: Human large cell immunoblastic lymphoma cell line SR; assay: Inhibition of SR cell proliferation (CellTiter luminescent viability); type: cell-based; details: Table IA1, IRAK4 inhibitor-based, 96 hours, read-out: Inhibitory activity (IC50, nM) on tumor cell proliferation, SR
In short: as §1

SMILES: CC1(C)[C@H](NC(=O)c2ccc(N3CCC(CN4CC5CCC4CN5c4ccc5c(c4)C(=O)N(N4CCC(=O)NC4=O)C5=O)CC3)nc2)C(C)(C)[C@H]1Oc1ccc(C#N)c(Cl)c1 (stereo partly shown) [GT-05834, N-((1r,3r)-3-(3-chloro-4-cyanophenoxy)-2,2,4,4-tetramethylcyclobutyl)-6-(4-((5-(2-(2,4-dioxotetrahydropyrimidin-1(2H)-yl)-1,3-dioxoisoindolin-5-yl)-2,5-diazabicyclo[2.2.2]octan-2-yl)methyl)piperidin-1-yl)nicotinamide]
inhibition at 0.01 µM [1]: 10 to 15%
inhibition at 0.5 µM [1]: 40 to 60%

SMILES: O=C1CCN(N2Cc3cc(CN4CCC(n5cc(NC(=O)c6cnn7ccc(N8CCOCC8)nc67)c(C(F)F)n5)CC4)ccc3C2=O)C(=O)N1 [GT-05749]
inhibition at 0.01 µM [2]: 25 to 30%
inhibition at 0.01 µM [3]: 7 to 10%
inhibition at 0.5 µM [3]: 60 to 80%
inhibition at 0.01 µM [4]: 0 to 10%
inhibition at 0.5 µM [4]: 80 to 100%

IC50 [5]: 100 to 300 nM
IC50 [7]: 500 to 1000 nM
SMILES: O=C1CCN(N2Cc3cc(CN4CCC(n5cc(NC(=O)c6coc(-c7ccnc(NCC8CC8)c7)n6)c(C(F)F)n5)CC4)ccc3C2=O)C(=O)N1 [GT-04951, 2-(2-((cyclopropylmethyl)amino)pyridin-4-yl)-N-(3-(difluoromethyl)-1-(1-((2-(2,4-dioxotetrahydropyrimidin-1(2H)-yl)-1-oxoisoindolin-5-yl)methyl)piperidin-4-yl)-1H-pyrazol-4-yl) oxazole-4-carboxamide]
IC50 [6]: 100 to 300 nM

SMILES: O=C1CCN(N2C(=O)c3ccc(N4C5CC4CN(C[C@H]4CC[C@H](n6cc(NC(=O)c7cnn8ccc(N9C[C@H]%10C[C@@H]9CO%10)nc78)c(C(F)F)n6)CC4)C5)cc3C2=O)C(=O)N1 [GT-05242, 5-((1R,4R)-2-oxa-5-azabicyclo[2.2.1]heptan-5-yl)-N-(3-(difluoromethyl)-1-((1r,4R)-4-((6-(2-(2,4-dioxotetrahydropyrimidin-1(2H)-yl)-1,3-dioxoisoindolin-5-yl)-3,6-diazabicyclo[3.1.1]heptan-3-yl)methyl)cyclohexyl)-1H-pyrazol-4-yl)pyrazolo[1,5-a]pyrimidine-3-carboxamide]
inhibition at 0.01 µM [2]: 20 to 25%

IC50 [5]: 500 to 1000 nM
IC50 [7]: 500 to 1000 nM
SMILES: O=C1CCN(N2Cc3cc(CN4CCC(n5cc(NC(=O)c6cnn7ccc(N8C[C@H]9C[C@@H]8CO9)nc67)c(C(F)F)n5)CC4)ccc3C2=O)C(=O)N1 [GT-05028, 5-((1R,4R)-2-oxa-5-azabicyclo[2.2.1]heptan-5-yl)-N-(3-(difluoromethyl)-1-(1-((2-(2,4-dioxotetrahydropyrimidin-1(2H)-yl)-1-oxoisoindolin-5-yl)methyl)piperidin-4-yl)-1H-pyrazol-4-yl)pyrazolo[1,5-a]pyrimidine-3-carboxamide]
IC50 [6]: 300 to 500 nM

SMILES: O=C1CCN(N2C(=O)c3cccc(N4CCC(CN5CCC(n6cc(NC(=O)c7cnn8ccc(N9C[C@H]%10C[C@@H]9CO%10)nc78)c(C(F)F)n6)CC5)CC4)c3C2=O)C(=O)N1 [GT-05285, 5-((1R,4R)-2-oxa-5-azabicyclo[2.2.1]heptan-5-yl)-N-(3-(difluoromethyl)-1-(1-((1-(2-(2,4-dioxotetrahydropyrimidin-1(2H)-yl)-1,3-dioxoisoindolin-4-yl)piperidin-4-yl)methyl)piperidin-4-yl)-1H-pyrazol-4-yl)pyrazolo[1,5-a]pyrimidine-3-carboxamide]
inhibition at 0.01 µM [2]: 30 to 40%
inhibition at 0.01 µM [3]: -5 to 0%
inhibition at 0.5 µM [3]: 80 to 100%
inhibition at 0.01 µM [4]: 45 to 50%
inhibition at 0.5 µM [4]: 80 to 100%

SMILES: CC(C)(O)c1cc2nc(C3CCN(Cc4ccc5c(c4)CN(N4CCC(=O)NC4=O)C5=O)CC3)oc2cc1NC(=O)c1cccc(C(F)(F)F)n1 [GT-05748, N-(2-(1-((2-(2,4-dioxotetrahydropyrimidin-1(2H)-yl)-1-oxoisoindolin-5-yl)methyl)piperidin-4-yl)-5-(2-hydroxypropan-2-yl)benzo[d]oxazol-6-yl)-6-(trifluoromethyl) picolinamide]
inhibition at 0.01 µM [2]: 30 to 40%

SMILES: N#Cc1ccc(O[C@H]2CC[C@H](NC(=O)c3ccc(N4CCC(CN5CC6CCC5CN6c5ccc6c(c5)C(=O)N(N5CCC(=O)NC5=O)C6=O)CC4)nn3)CC2)cc1Cl (stereo partly shown) [GT-05832, N-((1r,4r)-4-(3-chloro-4-cyanophenoxy)cyclohexyl)-6-(4-((5-(2-(2,4-dioxotetrahydropyrimidin-1(2H)-yl)-1,3-dioxoisoindolin-5-yl)-2,5-diazabicyclo[2.2.2]octan-2-yl)methyl)piperidin-1-yl)pyridazine-3-carboxamide]
inhibition at 0.01 µM [1]: -5 to 0%
inhibition at 0.5 µM [1]: 30 to 40%
